Assay results published in ChEMBL document CHEMBL1938277, “N-acylaminophenothiazines: neuroprotective agents displaying multifunctional activities for a potential treatment of Alzheimer's disease” (Eur J Med Chem, 2011).
pIC50: −log10 of the molar value.

Tests used:
[1] = system: SH-SY5Y; experiment: Neuroprotective activity against H2O2-induced cell death in human SH-SY5Y cells assessed as LDH release at 3 uM incubated for 24 hrs before H2O2 challenge measured after 24 hrs relative to control; assay type: functional
[2] = system: SH-SY5Y; experiment: Neuroprotective activity against H2O2-induced cell death in human SH-SY5Y cells assessed as LDH release at 30 uM incubated for 24 hrs before H2O2 challenge measured after 24 hrs relative to control; assay type: functional
[3] = molecular target: T1, Acetylcholinesterase (Bos taurus, UniProt P23795); experiment: biochemical
T1 sequence (P23795 whole entry): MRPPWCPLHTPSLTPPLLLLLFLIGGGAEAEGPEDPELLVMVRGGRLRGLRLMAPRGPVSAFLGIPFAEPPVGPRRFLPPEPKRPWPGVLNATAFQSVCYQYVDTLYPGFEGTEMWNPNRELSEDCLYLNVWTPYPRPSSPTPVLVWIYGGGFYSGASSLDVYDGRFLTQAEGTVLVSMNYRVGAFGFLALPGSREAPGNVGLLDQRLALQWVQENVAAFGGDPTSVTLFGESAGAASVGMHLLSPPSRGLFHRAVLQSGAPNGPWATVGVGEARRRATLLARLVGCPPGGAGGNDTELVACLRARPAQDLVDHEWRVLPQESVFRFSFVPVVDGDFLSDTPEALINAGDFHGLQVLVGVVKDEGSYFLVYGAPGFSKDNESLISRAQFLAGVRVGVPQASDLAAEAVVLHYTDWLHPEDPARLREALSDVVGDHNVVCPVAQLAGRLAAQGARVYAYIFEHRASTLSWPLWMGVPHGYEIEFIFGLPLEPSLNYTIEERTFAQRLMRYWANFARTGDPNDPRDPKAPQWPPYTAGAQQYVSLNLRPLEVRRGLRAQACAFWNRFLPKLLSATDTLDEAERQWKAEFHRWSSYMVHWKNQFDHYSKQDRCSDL
Description: Inhibition of AChE in bovine erythrocytes using acetylthiocholine as substrate by Ellman method

[4] = in vitro; settings: PAMPA
Description: Permeability of the compound by PAMPA assay

[5] = system: SH-SY5Y; experiment: Neuroprotective activity against H2O2-induced cell death in human SH-SY5Y cells assessed as LDH release at 1 uM incubated for 24 hrs before H2O2 challenge measured after 24 hrs relative to control; assay type: functional
[6] = system: SH-SY5Y; experiment: Neuroprotective activity against H2O2-induced cell death in human SH-SY5Y cells assessed as LDH release at 10 uM incubated for 24 hrs before H2O2 challenge measured after 24 hrs relative to control; assay type: functional
[7] = molecular target: Cholinesterase (Equus caballus, UniProt P81908)
Description: Inhibition of BuChE in horse serum using butyrylthiocholine as substrate by Ellman method

[8] = system: SH-SY5Y; experiment: Neuroprotective activity against rotenone/oligomycin A-induced cell death in human SH-SY5Y cells assessed as LDH release at 0.3 uM treated 24 hrs before rotenone/oligomycin A challenge measured after 24 hrs relative to control; assay type: functional
[9] = system: SH-SY5Y; experiment: Neuroprotective activity against rotenone/oligomycin A-induced cell death in human SH-SY5Y cells assessed as LDH release at 1 uM after 24 hrs relative to control; assay type: functional
[10] = system: SH-SY5Y; experiment: Neuroprotective activity against rotenone/oligomycin A-induced cell death in human SH-SY5Y cells assessed as LDH release at 1 uM treated 24 hrs before rotenone/oligomycin A challenge measured after 24 hrs relative to control; assay type: functional
[11] = system: SH-SY5Y; experiment: Neuroprotective activity against rotenone/oligomycin A-induced cell death in human SH-SY5Y cells assessed as LDH release at 0.1 uM treated 24 hrs before rotenone/oligomycin A challenge measured after 24 hrs relative to control; assay type: functional
[12] = system: SH-SY5Y; experiment: Cytotoxicity against human SH-SY5Y cells; assay type: cell-based
[13] = system: SH-SY5Y; experiment: Neuroprotective activity against rotenone/oligomycin A-induced cell death in human SH-SY5Y cells assessed as LDH release at 0.3 uM after 24 hrs relative to control; assay type: functional
[14] = system: SH-SY5Y; experiment: Neuroprotective activity against rotenone/oligomycin A-induced cell death in human SH-SY5Y cells assessed as LDH release at 0.1 uM after 24 hrs relative to control; assay type: functional
[15] = system: SH-SY5Y; experiment: Antioxidant activity in human SH-SY5Y cells assessed as sequestering of rotenone/oligomycin A-induced mitochondrial free radicals at 0.3 uM after 120 mins by DCFH-DA assay; assay type: functional
[16] = system: SH-SY5Y; experiment: Neuroprotective activity against okadaic acid-induced cell death in human SH-SY5Y cells assessed as LDH release at 0.3 uM treated 24 hrs before okadaic acid challenge measured after 24 hrs relative to control; assay type: functional
[17] = system: SH-SY5Y; experiment: Inhibition of potassium chloride-induced cytosolic calcium level in human SH-SY5Y cells at 10 uM treated after 10 mins before potassium chloride challenge by Fluo-4/AM fluorescence assay; assay type: functional
[18] = system: SH-SY5Y; experiment: Neuroprotective activity against rotenone/oligomycin A-induced cell death in human SH-SY5Y cells assessed as LDH release at […] after 24 hrs relative to control; assay type: functional
[19] = system: SH-SY5Y; experiment: Neuroprotective activity against rotenone/oligomycin A-induced cell death in human SH-SY5Y cells assessed as LDH release at 3 uM treated 24 hrs before rotenone/oligomycin A challenge measured after 24 hrs relative to control; assay type: functional

Cholinesterase, sequence (P81908 whole entry): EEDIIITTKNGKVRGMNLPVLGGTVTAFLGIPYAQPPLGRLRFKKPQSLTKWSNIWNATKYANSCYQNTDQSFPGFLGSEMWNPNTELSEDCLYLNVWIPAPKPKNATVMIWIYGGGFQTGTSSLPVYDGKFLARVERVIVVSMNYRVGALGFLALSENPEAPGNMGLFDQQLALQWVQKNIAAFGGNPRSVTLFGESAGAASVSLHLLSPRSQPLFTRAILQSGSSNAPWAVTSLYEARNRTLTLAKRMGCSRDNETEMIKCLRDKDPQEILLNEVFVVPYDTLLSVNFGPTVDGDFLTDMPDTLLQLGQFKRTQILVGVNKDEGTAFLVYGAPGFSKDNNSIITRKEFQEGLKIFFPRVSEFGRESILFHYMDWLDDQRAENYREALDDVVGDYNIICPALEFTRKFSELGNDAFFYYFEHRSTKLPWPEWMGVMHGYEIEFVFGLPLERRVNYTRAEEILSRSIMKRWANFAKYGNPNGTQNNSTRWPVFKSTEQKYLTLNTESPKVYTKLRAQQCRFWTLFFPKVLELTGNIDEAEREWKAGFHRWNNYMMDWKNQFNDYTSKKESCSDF

Compound	Activity [1] [%]	Activity [2] [%]	pIC50 [3]	Papp [4] [×10⁻⁶ cm/s]	Activity [5] [%]	Activity [6] [%]	pIC50 [7]	Activity [8] [%]	Activity [9] [%]	Activity [10] [%]	Activity [11] [%]	Activity [12]	Activity [13] [%]	Activity [14] [%]	Activity [15] [%]	Activity [16] [%]	inhibition at 10 µM [17] [%]	Activity [18] [%]	Activity [19] [%]
CN1CCN(CCC(=O)NN2c3ccccc3Sc3cc(Cl)ccc32)CC1	56.6	72.8	< 4.00	13.8	43.9	68.6	6.05	–	–	–	–	–	–	–	–	–	–	–	–
CN(C)CC(=O)NN1c2ccccc2Sc2ccccc21	26.3	22	< 4.00	18.3	30.5	38.6	5.77	–	–	–	–	–	–	–	–	–	–	–	–
CN(C)CC(=O)NN1c2ccccc2Sc2ccc(Cl)cc21	29.5	23.2	< 4.00	13.5	15.6	42.6	5.15	–	–	–	–	–	–	–	–	–	–	–	–
CN(C)CC(=O)NN1c2ccccc2Sc2cc(Cl)ccc21	62.7	9.7	< 4.00	15.5	59.8	28.2	5.30	–	–	–	–	–	–	–	–	–	–	–	–
O=C(CN1CCCCC1)NN1c2ccccc2Sc2ccccc21	26.1	10.1	< 4.00	16.4	27.2	9.7	6.40	–	–	–	–	–	–	–	–	–	–	–	–
O=C(CN1CCCCC1)NN1c2ccccc2Sc2cccc(Cl)c21	9.9	32.6	< 4.00	13.9	1.1	0	5.66	–	–	–	–	–	–	–	–	–	–	–	–
O=C(CN1CCCCC1)NN1c2ccccc2Sc2ccc(Cl)cc21	80.8	76.4	< 4.00	9.1	66.1	73.8	< 4.00	–	–	–	–	–	–	–	–	–	–	–	–
O=C(CN1CCCCC1)NN1c2ccccc2Sc2cc(Cl)ccc21	55.2	17.8	< 4.00	14.7	25.4	44.9	6.15	–	–	–	–	–	–	–	–	–	–	–	–
O=C(CN1CCCC1)NN1c2ccccc2Sc2ccccc21	35.6	23.3	< 4.00	10.5	13.1	18.9	6.10	–	–	–	–	–	–	–	–	–	–	–	–
O=C(CN1CCCC1)NN1c2ccccc2Sc2ccc(Cl)cc21	48.9	55.6	< 4.00	11.2	17.4	54.8	5.37	–	–	–	–	–	–	–	–	–	–	–	–
CC(=O)NN1c2ccccc2Sc2cc(Cl)ccc21	52.2	21.2	< 4.00	9.8	40.3	37.2	< 4.00	–	–	–	–	–	–	–	–	–	–	–	–
O=C(CCN1CCCC1)NN1c2ccccc2Sc2ccccc21	81.4	72.5	< 4.00	17.3	90.1	88	5.85	42.4	52.6	16.5	58.8	Non-toxic	63.7	66.1	23.8	–	–	–	–
O=C(CCN1CCCC1)NN1c2ccccc2Sc2cc(Cl)ccc21	57.2	49	< 4.00	16.4	34.4	29.4	5.52	–	–	–	–	–	–	–	–	–	–	–	–
COc1ccc2c(c1)Sc1ccccc1N2NC(=O)CCN1CCCC1	11.8	0	< 4.00	8.7	17.8	0	6.10	–	–	–	–	–	–	–	–	–	–	–	–
CN1CCN(CCC(=O)NN2c3ccccc3Sc3ccccc32)CC1	34.5	6.3	< 4.00	17	82.9	22.8	5.89	–	–	–	–	–	–	–	–	–	–	–	–
COc1ccc2c(c1)Sc1ccccc1N2NC(=O)CCN1CCN(C)CC1	42.1	55.1	< 4.00	16.8	49.5	66.5	5.70	49.4	65.4	50.8	37.2	Non-toxic	57.9	66.3	24.2	–	–	–	–
CN1CCN(CCC(=O)NN2c3ccccc3Sc3cc([N+](=O)[O-])ccc32)CC1	46.5	31.7	< 4.00	14.6	41.3	46.2	5.82	–	–	–	–	–	–	–	–	–	–	–	–
COc1ccc2c3c1O[C@H]1C[C@@H](O)C=C[C@@]31CCN(C)C2 [GALANTAMINE]	–	–	–	–	–	–	–	–	–	–	–	–	–	–	–	36	–	–	–
COC(=O)C1=C(C)NC(C)=C(C(=O)OC)C1c1ccccc1[N+](=O)[O-] [NIFEDIPINE]	–	–	–	–	–	–	–	–	–	–	–	–	–	–	–	–	45	–	–
Cc1c(C)c2c(c(C)c1O)CCC(C)(C(=O)O)O2 (stereo unspecified) [TROLOX]	–	57.7	–	–	–	–	–	–	–	–	–	–	–	–	27.8	–	–	63.7	65.1
